Results taken from article PMC12829593 (Journal of cystic fibrosis : official journal of the …, 2025).
Values after ≈ are worked out from the molar mass of the structure shown. Like-named read-outs stand apart in the source and are kept apart here.

What was measured:
[1] = type: in vivo, human; conditions: mean (SD); for Cavg / Cmin / AUC / Cmax / half-life / Tmax: plasma; for Cavg / Cmin / Cmax: steady state; for AUC / Cmax / half-life / Tmax: human, oral; for AUC: AUCτ, AUC24 (ELX, TEZ) or AUC12 (IVA)
CFTR = conditions: estimated from published data, compounds used concurrently; cited from earlier work
[2] = Tacrolimus concentration in transplant participants; type: in vivo, human; conditions: Transplant (n=12), concurrent ETI, mean (SD)
[3] = Transplant group (n=12), concomitant tacrolimus
[4] = T1/2, Non-transplant group (n=14)
[5] = T1/2, Transplant group (n=12), concomitant tacrolimus

| SMILES | CLss/F ([1]; Non-transplant group (n=14)) | V/F ([1]; Non-transplant group (n=14)) | Cavg ([1]; Non-transplant group (n=14)) | Cmin ([1]; Non-transplant group (n=14)) | CLss/F [1, 3] | V/F [1, 3] | Cavg [1, 3] | Cmin [1, 3] | AUC ([1]; Non-transplant group (n=14)) [ng·h/mL] | AUC [1, 3] [ng·h/mL] | Cmax ([1]; Non-transplant group (n=14)) [ng/mL] | Cmax [1, 3] [ng/mL] | half-life [1, 4] [h] | half-life [1, 5] [h] | Tmax ([1]; Non-transplant group (n=14)) [h] | Tmax [1, 3] [h] | EC50 (CFTR) [µg/mL] | EC90 (CFTR) [µg/mL] | Tacrolimus concentration [2] | Cmin ([1]; Non-transplant group (n=14), listed as IVA) [ng/mL] |
| --- | --- | --- | --- | --- | --- | --- | --- | --- | --- | --- | --- | --- | --- | --- | --- | --- | --- | --- | --- | --- |
| CC(C)(CO)c1cc2cc(NC(=O)C3(c4ccc5c(c4)OC(F)(F)O5)CC3)c(F)cc2n1C[C@@H](O)CO [Tezacaftor, tezacaftor] | 1.53(0.83) L/h | 37.1(24.4) | 3294(1314) ng/mL | 1746(1050) ng/mL | 1.54(1.07) L/h | 47.5(59) | 3403(1240) ng/mL | 2016(904) ng/mL | 79000 | 82000 | 7460 | 6520 | 19 | 21 | 2.21 | 3.08 | 0.4 (≈ 0.768 µM) | 3.5 (≈ 6.72 µM) |  |  |
| C=CC[C@@H]1/C=C(\C)C[C@H](C)C[C@H](OC)[C@H]2O[C@@](O)(C(=O)C(=O)N3CCCC[C@H]3C(=O)O[C@H](/C(C)=C/[C@@H]3CC[C@@H](O)[C@H](OC)C3)[C@H](C)[C@@H](O)CC1=O)[C@H](C)C[C@@H]2OC [Tacrolimus, tacrolimus] |  |  |  |  |  |  |  |  |  |  |  |  |  |  |  |  |  |  | 6.5 (1.5) ng/mL |  |
| Cc1nn(C)cc1S(=O)(=O)NC(=O)c1ccc(-n2ccc(OCC(C)(C)C(F)(F)F)n2)nc1N1C[C@@H](C)CC1(C)C [Elexacaftor, elexacaftor] | 2.05(2.29) L/h | 107(155) | 6398(3233) ng/mL | 4327(2359) ng/mL | 1.23(0.79) L/h | 37.4(15.0) | 8339(3152) ng/mL | 5632(2664) ng/mL | 154000 | 200000 | 9080 | 11400 | 35 | 23.6 | 4.79 | 7.33 | 0.5 (≈ 0.837 µM) | 4.5 (≈ 7.53 µM) |  |  |
| CC(C)(C)c1cc(C(C)(C)C)c(NC(=O)c2c[nH]c3ccccc3c2=O)cc1O [Ivacaftor, ivacaftor] | 27.9 (47.4) L/h | 337 (441) | 947 (507) ng/mL | 525 (325) ng/mL | 19.9 (15.5) L/h | 168 (71) | 833 (342) ng/mL | 467 (203) ng/mL | 11400 | 9900 | 1380 |  | 9.4 | 7.8 | 4 | 4.6 | 0.04 (≈ 0.102 µM) | 0.35 (≈ 0.892 µM) |  | 525 |
